Assay results as given in ChEMBL document CHEMBL4602729, “O-Alkyl Hydroxamates Display Potent and Selective Antileishmanial Activity” (J Med Chem, 2020).
Calls of active or inactive are those of the source. The rule behind the calls is not given here.

Tests used:
[1] = Toxicity in BALB/c mouse infected with Leishmania infantum MON-1 promastigotes assessed as enzymatic alteration in plasma at 10 to 25 mg/kg, ip administered daily for 14 days starting from 28 days post infection using gold nanoparticle incorporated compound; type: organism-based; details: in vivo
[2] = Toxicity in BALB/c mouse infected with Leishmania infantum MON-1 promastigotes assessed as enzymatic alteration in serum at 10 to 25 mg/kg, ip administered daily for 14 days starting from 28 days post infection using gold nanoparticle incorporated compound; type: organism-based; details: in vivo
[3] = Toxicity in BALB/c mouse infected with Leishmania infantum MON-1 promastigotes assessed as swelling of liver at 10 to 25 mg/kg, ip administered daily for 14 days starting from 28 days post infection using PLGA nanoparticle incorporated compound; type: organism-based; details: in vivo
[4] = Toxicity in BALB/c mouse infected with Leishmania infantum MON-1 promastigotes assessed as enzymatic alteration in serum at 10 to 25 mg/kg, ip administered daily for 14 days starting from 28 days post infection using PLGA nanoparticle incorporated compound; type: organism-based; details: in vivo
[5] = Toxicity in BALB/c mouse infected with Leishmania infantum MON-1 promastigotes assessed as weight loss at 10 to 25 mg/kg, ip administered daily for 14 days starting from 28 days post infection using gold nanoparticle incorporated compound; type: organism-based; details: in vivo
[6] = Half life in human liver microsomes at 1 uM in presence of NADPH by LC-MS/MS analysis; type: ADME, Microsome
[7] = Toxicity in BALB/c mouse infected with Leishmania infantum MON-1 promastigotes at 5 to 10 mg/kg, ip administered daily for 14 days starting from 28 days post infection using gold nanoparticle incorporated compound in presence of meglumine antimoniate; type: organism-based; details: in vivo
Leishmania infantum [8] = assay: Antileishmanial activity against Leishmania infantum MON-1 promastigotes infected in BALB/c mouse assessed as reduction in liver parasite load at 5 mg/kg, ip administered daily for 14 days starting from 28 days post infection using gold nanoparticle incorporated compound measured post last dose in presence of meglumine antimoniate by Taqman qRT-PCR analysis relative to control; type: functional; parameters: scale not given: the % may be the effect or the level left
[9] = Toxicity in BALB/c mouse infected with Leishmania infantum MON-1 promastigotes assessed as swelling of kidney at 10 to 25 mg/kg, ip administered daily for 14 days starting from 28 days post infection using PLGA nanoparticle incorporated compound; type: organism-based; details: in vivo
[10] = Solubility of the compound in plasma (unknown origin); type: ADME, cell-free
Leishmania infantum [11] = assay: Antileishmanial activity against Leishmania infantum MON-1 promastigotes infected in BALB/c mouse assessed as reduction in spleen parasite load at 25 mg/kg, ip administered daily for 14 days starting from 28 days post infection using PLGA nanoparticle incorporated compound measured post last dose by Taqman qRT-PCR analysis relative to control; type: functional; parameters: scale not given: the % may be the effect or the level left
Leishmania infantum [12] = assay: Antileishmanial activity against Leishmania infantum MON-1 promastigotes infected in BALB/c mouse assessed as reduction in spleen parasite load at 10 mg/kg, ip administered daily for 14 days starting from 28 days post infection using gold nanoparticle incorporated compound measured post last dose in presence of meglumine antimoniate by Taqman qRT-PCR analysis relative to control; type: functional; parameters: scale not given: the % may be the effect or the level left
[13] = Toxicity in BALB/c mouse infected with Leishmania infantum MON-1 promastigotes assessed as swelling of spleen at 10 to 25 mg/kg, ip administered daily for 14 days starting from 28 days post infection using gold nanoparticle incorporated compound; type: organism-based; details: in vivo
[14] = Toxicity in BALB/c mouse infected with Leishmania infantum MON-1 promastigotes assessed as swelling of kidney at 10 to 25 mg/kg, ip administered daily for 14 days starting from 28 days post infection using gold nanoparticle incorporated compound; type: organism-based; details: in vivo
Leishmania infantum [15] = assay: Antileishmanial activity against Leishmania infantum MON-1 promastigotes assessed as reduction in parasite viability at 100 uM measured after 48 hrs by MTT assay; type: functional, organism-based
BMDM [16] = assay: Cytotoxicity against Swiss mouse BMDM assessed as reduction in cell viability at 3.21 uM measured after 72 hrs using PLGA nanoparticle incorporated compound by tryphan blue assay; type: cell-based
[17] = Mutagenicity in Salmonella typhimurium TA100 at 10 to 75 uM measured after 5 days in absence of S9 fraction by Ames test; type: toxicity; details: salmonella enterica subsp. enterica serovar typhimurium, s9, 120 h
[18] = Cytotoxicity against Swiss mouse BMDM assessed as reduction in cell viability measured after 72 hrs by tryphan blue assay; type: cell-based; details: Swiss, BMDM
[19] = Mutagenicity in Salmonella typhimurium TA100 at 10 to 75 uM measured after 5 days in presence of S9 fraction by Ames test; type: toxicity, subcellular; details: salmonella enterica subsp. enterica serovar typhimurium, s9, 120 h
[20] = Toxicity in BALB/c mouse infected with Leishmania infantum MON-1 promastigotes assessed as biochemical alteration in plasma at 10 to 25 mg/kg, ip administered daily for 14 days starting from 28 days post infection using gold nanoparticle incorporated compound; type: organism-based; details: in vivo
Leishmania infantum [21] = assay: Antileishmanial activity against Leishmania infantum MON-1 intracellular amastigotes infected in Swiss mouse BMDM measured after 48 hrs by Giemsa staining based optical microscopic analysis; type: functional, organism-based; details: Leishmania infantum, MON-1, BMDM, 48 h
BMDM [22] = assay: Cytotoxicity against Swiss mouse BMDM assessed as reduction in cell viability at 14.3 uM measured after 72 hrs using gold nanoparticle incorporated compound by tryphan blue assay; type: cell-based
[23] = Toxicity in BALB/c mouse infected with Leishmania infantum MON-1 promastigotes assessed as swelling of spleen at 10 to 25 mg/kg, ip administered daily for 14 days starting from 28 days post infection using PLGA nanoparticle incorporated compound; type: organism-based; details: in vivo
[24] = Sub-acute toxicity in Swiss mouse at 25 to 200 mg/kg administered as for 14 days and measured on day 28; type: organism-based; details: in vivo, 336 h
Cytochrome P450 2D6 = Cytochrome P450 2D6 (Homo sapiens, UniProt P10635); assay: Inhibition of CYP2D6 in human liver microsomes using dextromethorphan as substrate measured after 30 mins by LC-MS/MS analysis; type: ADME
Chain of Cytochrome P450 2D6 (P10635 whole entry): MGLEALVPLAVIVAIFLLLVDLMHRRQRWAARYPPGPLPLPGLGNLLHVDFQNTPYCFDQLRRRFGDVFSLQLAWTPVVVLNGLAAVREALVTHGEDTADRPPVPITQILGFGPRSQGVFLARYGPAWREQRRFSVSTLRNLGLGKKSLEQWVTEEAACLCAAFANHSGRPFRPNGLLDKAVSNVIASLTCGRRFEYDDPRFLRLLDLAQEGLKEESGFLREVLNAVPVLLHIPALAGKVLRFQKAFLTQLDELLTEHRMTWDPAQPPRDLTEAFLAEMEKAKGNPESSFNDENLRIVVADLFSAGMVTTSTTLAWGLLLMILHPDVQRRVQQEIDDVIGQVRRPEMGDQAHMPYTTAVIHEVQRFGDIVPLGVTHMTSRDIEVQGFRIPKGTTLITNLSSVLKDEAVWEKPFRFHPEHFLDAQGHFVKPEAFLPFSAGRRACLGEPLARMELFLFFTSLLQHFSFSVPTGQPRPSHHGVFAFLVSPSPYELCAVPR

Leishmania infantum [25] = assay: Antileishmanial activity against Leishmania infantum MON-1 promastigotes infected in BALB/c mouse assessed as reduction in spleen parasite load at 10 mg/kg, ip administered daily for 14 days starting from 28 days post infection using gold nanoparticle incorporated compound measured post last dose by Taqman qRT-PCR analysis relative to control; type: functional; parameters: scale not given: the % may be the effect or the level left
[26] = Toxicity in Swiss mouse at 500 mg/kg administered as single dose measured after 28 days; type: organism-based; details: in vivo, 672 h

For O=C(CCCCCCC(=O)Nc1ccccc1)NOC(c1ccccc1)(c1ccccc1)c1ccccc1, the Activity [1] was “Non-Toxic”, the Activity [2] was “Non-Toxic” and the Activity [3] was “Non-Toxic”. The Activity [4] was “Non-Toxic”, the Activity [5] was “Non-Toxic” and the half-life at 1 µM [6] was 8.7 min. The Activity [7] was “Non-Toxic”, the Activity (Leishmania infantum [8]) was 98% and the Activity [9] was “Non-Toxic”. For the same compound, the solubility [10] was “Insoluble”, the Activity (Leishmania infantum [11]) was 70% and the Activity (Leishmania infantum [12]) was 92%. For the same compound, the Activity [13] was “Non-Toxic”, the Activity [14] was “Non-Toxic” and the Activity (Leishmania infantum [15]) was “inactive”. For the same compound, the Activity (BMDM [16]) was “Non-Toxic”, the Activity [17] was “Non-Toxic” and the CC50 at 72 h [18] was over 100 µM. The Activity [19] was “Non-Toxic”, the Activity [20] was “Non-Toxic” and the IC50 (Leishmania infantum [21]) was 3.21 µM. For the same compound, the Activity (BMDM [22]) was “Non-Toxic”, the Activity [23] was “Non-Toxic” and the Activity [24] was “Non-Toxic”. For the same compound, the IC50 (Cytochrome P450 2D6) was over 86.2 µM, the Activity (Leishmania infantum [25]) was 86% and the Activity [26] was “Non-Toxic”.
